Laboratory results reported in the supplement of paper PMC10307832.

Columns and labels:
Assay in all cases: relative viability (nuclei count vs DMSO), 5 days (fraction); higher = more cells survive
CAL-12T = test system: CAL-12T
Procedure, shortened: (§1)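 The day after seeding in 1536-well plates, lung cancer cell lines were treated by pin tool with a single drug, or with a fixed anchor-drug dose together with five library-drug doses (not always all listed) in √10 steps. After 5 days, a combined fix-and-stain solution (final 0.05% Triton X-100, 1% formaldehyde, 1 ug/ml Hoechst) was added. Nuclei counted on 4× images gave relative viability as treated counts over vehicle counts, reported as the median of duplicate plates.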

COR-L 105 = test system: COR-L 105
Procedure, shortened: as §1

EKVX = test system: EKVX
Procedure, shortened: as §1

EMC-BAC-2 = test system: EMC-BAC-2
Procedure, shortened: as §1

H3255 = test system: H3255
Procedure, shortened: as §1

LC-2-ad = test system: LC-2-ad
Procedure, shortened: as §1

LK-2 = test system: LK-2
Procedure, shortened: as §1

LXF-289 = test system: LXF-289
Procedure, shortened: as §1

NCI-H1395 = test system: NCI-H1395
Procedure, shortened: as §1

NCI-H1437 = test system: NCI-H1437
Procedure, shortened: as §1

NCI-H1651 = test system: NCI-H1651
Procedure, shortened: as §1

NCI-H1755 = test system: NCI-H1755
Procedure, shortened: as §1

NCI-H1793 = test system: NCI-H1793
Procedure, shortened: as §1

NCI-H1915 = test system: NCI-H1915
Procedure, shortened: as §1

NCI-H1944 = test system: NCI-H1944
Procedure, shortened: as §1

NCI-H2085 = test system: NCI-H2085
Procedure, shortened: as §1

NCI-H2087 = test system: NCI-H2087
Procedure, shortened: as §1

NCI-H2228 = test system: NCI-H2228
Procedure, shortened: as §1

NCI-H2347 = test system: NCI-H2347
Procedure, shortened: as §1

NCI-H661 = test system: NCI-H661
Procedure, shortened: as §1

PC-3 [JPC-3] = test system: PC-3 [JPC-3]
Procedure, shortened: as §1

SK-LU-1 = test system: SK-LU-1
Procedure, shortened: as §1

SK-MES-1 = test system: SK-MES-1
Procedure, shortened: as §1

SMILES: O=C(O)CCCCC(CCSCc1ccccc1)SCc1ccccc1 (stereo not drawn) [CPI-613] + COc1cc2c(Oc3ccc(NC(=O)C4(C(=O)Nc5ccc(F)cc5)CC4)cc3F)ccnc2cc1OCCCN1CCOCC1 [Foretinib] (partner 0.25 µM)
- relative viability (CAL-12T; first compound 5 µM): 0.981
- relative viability (CAL-12T; first compound 15.81 µM): 0.89
- relative viability (CAL-12T; first compound 50 µM): 1.11
- relative viability (CAL-12T; first compound 158.11 µM): 0.142
- relative viability (CAL-12T; first compound 500 µM): 0.015
- relative viability (COR-L 105; first compound 5 µM): 1.11
- relative viability (COR-L 105; first compound 15.81 µM): 1.03
- relative viability (COR-L 105; first compound 50 µM): 1.02
- relative viability (COR-L 105; first compound 158.11 µM): 0.508
- relative viability (COR-L 105; first compound 500 µM): 0.16
- relative viability (EKVX; first compound 5 µM): 0.83
- relative viability (EKVX; first compound 15.81 µM): 0.754
- relative viability (EKVX; first compound 50 µM): 0.983
- relative viability (EKVX; first compound 158.11 µM): 0.399
- relative viability (EKVX; first compound 500 µM): 0.531
- relative viability (EMC-BAC-2; first compound 5 µM): 1.01
- relative viability (EMC-BAC-2; first compound 15.81 µM): 0.993
- relative viability (EMC-BAC-2; first compound 50 µM): 0.967
- relative viability (EMC-BAC-2; first compound 158.11 µM): 0.367
- relative viability (EMC-BAC-2; first compound 500 µM): 0.0284
- relative viability (H3255; first compound 5 µM): 0.887
- relative viability (H3255; first compound 15.81 µM): 0.685
- relative viability (H3255; first compound 50 µM): 0.89
- relative viability (H3255; first compound 500 µM): 0.785
- relative viability (LC-2-ad; first compound 5 µM): 0.842
- relative viability (LC-2-ad; first compound 15.81 µM): 0.796
- relative viability (LC-2-ad; first compound 50 µM): 0.957
- relative viability (LC-2-ad; first compound 158.11 µM): 0.434
- relative viability (LC-2-ad; first compound 500 µM): 0.0582
- relative viability (LK-2; first compound 5 µM): 1.45
- relative viability (LK-2; first compound 15.81 µM): 1.18
- relative viability (LK-2; first compound 50 µM): 1.16
- relative viability (LK-2; first compound 158.11 µM): 1.06
- relative viability (LK-2; first compound 500 µM): 0.126
- relative viability (LXF-289; first compound 5 µM): 0.974
- relative viability (LXF-289; first compound 15.81 µM): 0.919
- relative viability (LXF-289; first compound 50 µM): 0.898
- relative viability (LXF-289; first compound 158.11 µM): 0.226
- relative viability (LXF-289; first compound 500 µM): 0.0507
- relative viability (NCI-H1395; first compound 5 µM): 0.973
- relative viability (NCI-H1395; first compound 15.81 µM): 0.971
- relative viability (NCI-H1395; first compound 50 µM): 0.916
- relative viability (NCI-H1395; first compound 158.11 µM): 0.94
- relative viability (NCI-H1395; first compound 500 µM): 0.961
- relative viability (NCI-H1437; first compound 5 µM): 1.22
- relative viability (NCI-H1437; first compound 15.81 µM): 1.23
- relative viability (NCI-H1437; first compound 50 µM): 1.29
- relative viability (NCI-H1437; first compound 158.11 µM): 0.426
- relative viability (NCI-H1437; first compound 500 µM): 0.0461
- relative viability (NCI-H1651; first compound 5 µM): 0.794
- relative viability (NCI-H1651; first compound 15.81 µM): 0.838
- relative viability (NCI-H1651; first compound 50 µM): 0.974
- relative viability (NCI-H1651; first compound 158.11 µM): 0.295
- relative viability (NCI-H1651; first compound 500 µM): 0.088
- relative viability (NCI-H1755; first compound 5 µM): 0.886
- relative viability (NCI-H1755; first compound 15.81 µM): 0.878
- relative viability (NCI-H1755; first compound 50 µM): 0.898
- relative viability (NCI-H1755; first compound 158.11 µM): 0.887
- relative viability (NCI-H1755; first compound 500 µM): 0.175
- relative viability (NCI-H1793; first compound 5 µM): 0.608
- relative viability (NCI-H1793; first compound 15.81 µM): 0.618
- relative viability (NCI-H1793; first compound 50 µM): 0.827
- relative viability (NCI-H1793; first compound 158.11 µM): 0.385
- relative viability (NCI-H1793; first compound 500 µM): 0.0145
- relative viability (NCI-H1915; first compound 5 µM): 1.04
- relative viability (NCI-H1915; first compound 15.81 µM): 1.09
- relative viability (NCI-H1915; first compound 50 µM): 1.06
- relative viability (NCI-H1915; first compound 158.11 µM): 0.309
- relative viability (NCI-H1915; first compound 500 µM): 0.132
- relative viability (NCI-H1944; first compound 5 µM): 0.923
- relative viability (NCI-H1944; first compound 15.81 µM): 0.878
- relative viability (NCI-H1944; first compound 50 µM): 0.967
- relative viability (NCI-H1944; first compound 158.11 µM): 0.649
- relative viability (NCI-H1944; first compound 500 µM): 0.0567
- relative viability (NCI-H2085; first compound 5 µM): 0.767
- relative viability (NCI-H2085; first compound 15.81 µM): 0.927
- relative viability (NCI-H2085; first compound 50 µM): 0.933
- relative viability (NCI-H2085; first compound 158.11 µM): 0.286
- relative viability (NCI-H2085; first compound 500 µM): 0.0979
- relative viability (NCI-H2087; first compound 5 µM): 1.09
- relative viability (NCI-H2087; first compound 15.81 µM): 1.11
- relative viability (NCI-H2087; first compound 50 µM): 1.05
- relative viability (NCI-H2087; first compound 158.11 µM): 0.0825
- relative viability (NCI-H2087; first compound 500 µM): 0.0183
- relative viability (NCI-H2228; first compound 5 µM): 0.719
- relative viability (NCI-H2228; first compound 15.81 µM): 0.948
- relative viability (NCI-H2228; first compound 50 µM): 0.78
- relative viability (NCI-H2228; first compound 158.11 µM): 0.332
- relative viability (NCI-H2228; first compound 500 µM): 0.088
- relative viability (NCI-H2347; first compound 5 µM): 0.7
- relative viability (NCI-H2347; first compound 15.81 µM): 1.05
- relative viability (NCI-H2347; first compound 50 µM): 1.09
- relative viability (NCI-H2347; first compound 500 µM): 1.05
- relative viability (NCI-H661; first compound 5 µM): 0.982
- relative viability (NCI-H661; first compound 15.81 µM): 1.06
- relative viability (NCI-H661; first compound 50 µM): 0.841
- relative viability (NCI-H661; first compound 158.11 µM): 0.371
- relative viability (NCI-H661; first compound 500 µM): 0.142
- relative viability (PC-3 [JPC-3]; first compound 5 µM): 0.973
- relative viability (PC-3 [JPC-3]; first compound 15.81 µM): 0.899
- relative viability (PC-3 [JPC-3]; first compound 50 µM): 0.916
- relative viability (PC-3 [JPC-3]; first compound 158.11 µM): 0.163
- relative viability (PC-3 [JPC-3]; first compound 500 µM): 0.139
- relative viability (SK-LU-1; first compound 5 µM): 0.875
- relative viability (SK-LU-1; first compound 15.81 µM): 0.754
- relative viability (SK-LU-1; first compound 50 µM): 0.626
- relative viability (SK-LU-1; first compound 158.11 µM): 0.282
- relative viability (SK-LU-1; first compound 500 µM): 0.092
- relative viability (SK-MES-1; first compound 5 µM): 0.999
- relative viability (SK-MES-1; first compound 15.81 µM): 0.901
- relative viability (SK-MES-1; first compound 50 µM): 0.843
- relative viability (SK-MES-1; first compound 158.11 µM): 0.831
- relative viability (SK-MES-1; first compound 500 µM): 0.84
